Data: patent publication US6057311A, “Benzodiazonine derivatives binding to cholecystokinin or gastrin receptors” (James Black Foundation Limited, priority 1996, dated 2000)

How the values were obtained:
CCKB receptor = target: T1, CCKB receptor (Mus musculus, UniProt P56481); experiment: radioligand binding assay at the CCKB receptor in mouse cortical membranes ([125I]-CCK8S); settings: [125I]-CCK8S 200 pM, 150 min at 21±3° C.; for Ki: pH 7.2, read-out: pKi (Mouse cortex) (converted); for pKi (Mouse cortex): pH 7.2
T1 construct: The cortex was dissected, weighed and homogenised in 40 ml ice-cold buffer; tissue Charles River (animals); host or cells: cerebral cortex of male CD1 mice, membranes
T1 sequence (P56481 1-453): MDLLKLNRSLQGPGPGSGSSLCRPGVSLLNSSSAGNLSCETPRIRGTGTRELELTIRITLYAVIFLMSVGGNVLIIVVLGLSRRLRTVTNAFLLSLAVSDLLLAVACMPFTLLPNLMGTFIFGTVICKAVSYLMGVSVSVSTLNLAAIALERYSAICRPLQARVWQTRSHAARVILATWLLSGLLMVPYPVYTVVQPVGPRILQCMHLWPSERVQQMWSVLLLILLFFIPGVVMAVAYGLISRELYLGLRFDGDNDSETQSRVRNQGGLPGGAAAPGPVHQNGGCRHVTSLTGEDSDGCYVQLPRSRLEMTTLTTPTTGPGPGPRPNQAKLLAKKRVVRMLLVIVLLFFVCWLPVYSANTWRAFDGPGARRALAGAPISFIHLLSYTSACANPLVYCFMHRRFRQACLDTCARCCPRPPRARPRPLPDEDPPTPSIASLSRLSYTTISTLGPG
Method: The compounds of the examples were tested for binding at the CCKB receptor in mouse cortical membranes by means of a radioligand binding assay. The procedure was as follows:
The whole brains from male mice (CD1 22-25 g; Charles River) were removed and placed in ice-cold buffer (pH7.2@21±3° C.) of the following composition (mM); 10 HEPES, 130 NaCl, 4.7 KCl, 5 MgCl2, 1 EDTA and containing 0.25 g.1^-1 bacitracin. The cortex was dissected, weighed and homogenised in 40 ml ice-cold buffer using a Teflon-in-glass homogeniser. The homogenate was centrifuged at 39,800 g for 20 min at 4° C., the supernatant discarded and the pellet resuspended by homogenisation in fresh buffer. The homogenate was recentrifuged (39,800 g; 20 min @4° C.) and the final pellet was resuspended in HEPES buffer to give a tissue concentration of 2 mg.ml^-1 (original wet weight).
The membranes (400 μl) were incubated for 150 min at 21±3° C. in a final volume of 0.5 ml with HEPES buffer containing [^125 I]-CCK8S (0.05 ml; 200 pM NEN 2200 Ci.mmol^-1) and competing compound. Total and non-specific binding of [^125 I]-CCK8S were defined using 0.05 ml of buffer and 0.05 ml of […] L-365,260, respectively. The assay was terminated by rapid filtration through pre-soaked Whatman GF/B filters using a Brandell Cell harvester. The filters were washed (3×3 ml) with ice-cold 50 mM Tris-HCl (pH7.4@4° C.) and bound radioactivity determined by counting (1 min.) in a gamma-counter.

CCKA = target: T2, CCKA (Cavia porcellus, UniProt Q63931); experiment: CCKA binding assay, guinea pig pancreas membranes ([125I]-CCK8(S)); settings: [125I]-CCK8(S) 200 pM, 0.375 μM PD134,308, 150 min at 21±3° C.; for Ki: pH 7.2, read-out: pKi (Guinea pig pancreas) (converted); for pKi (Guinea pig pancreas): pH 7.2
T2 construct: The pancreatata were removed from male guinea-pigs; from tissue; host or cells: pancreas of male Dunkin Hartley guinea pigs, membranes
T2 sequence (Q63931 1-430): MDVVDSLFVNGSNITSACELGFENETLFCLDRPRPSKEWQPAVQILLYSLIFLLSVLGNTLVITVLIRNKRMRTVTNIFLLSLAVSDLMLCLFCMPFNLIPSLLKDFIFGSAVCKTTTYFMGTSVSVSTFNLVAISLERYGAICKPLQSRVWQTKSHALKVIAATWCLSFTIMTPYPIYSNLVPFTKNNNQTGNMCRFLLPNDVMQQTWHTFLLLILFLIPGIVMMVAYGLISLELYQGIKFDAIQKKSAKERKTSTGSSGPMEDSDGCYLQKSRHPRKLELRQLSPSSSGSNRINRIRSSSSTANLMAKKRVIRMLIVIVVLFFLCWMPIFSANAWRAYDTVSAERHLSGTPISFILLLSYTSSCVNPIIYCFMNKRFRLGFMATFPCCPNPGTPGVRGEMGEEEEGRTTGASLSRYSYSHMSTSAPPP
Method: The compounds of the examples were also tested in a CCKA binding assay as follows:
The pancreatata were removed from male guinea-pigs (200-300 g; Dunkin Hartley) and placed in ice-cold HEPES buffer (pH 7.2@21±3° C.). The pancreatata were homogenised in 40 ml ice-cold HEPES buffer using a polytron (Brinkmann, PT10, setting 10) 4×1 second. The homogenate was centrifuged at 39,800 g for 15 min at 4° C. The supernatant was discarded and the pellet re-suspended using a Teflon-in-glass homogeniser in 20 volumes of fresh buffer and re-centrifuged as above. The final pellet was re-suspended using a Teflon-in-glass homogeniser to a tissue concentration of 1 mg.ml^-1 (original wet weight), and filtered through 500 μm pore-size Nytex mesh.
The membranes (400 μl; containing 0.375 μM PD134,308) were incubated for 150 minutes at 21±3° C. in a final volume of 0.5 ml with HEPES buffer containing [^125 I]-CCK8 (S) (50 μl; 200 pM) and competing compound. Total and non-specific binding of [^125 I]-CCK8 (S) were defined using 50 μl of buffer and 50 μl of 100 nM L-364,718 respectively. The assay was terminated by rapid filtration through pre-soaked Whatman GF/B filters using a Brandell Cell Harvester. The filters were washed (3×3 ml) with ice-cold 50 mM Tris HCl (pH 7.4 at 4° C.) and bound radioactivity was determined by counting (1 min) in a gamma counter.

Ki (CCKB receptor)	Ki (CCKA)	pKi (Mouse cortex) (CCKB receptor)	pKi (Guinea pig pancreas) (CCKA)	SMILES
1 µM	6.31 µM			CC(=O)N1[C@H](CC23CC4CC(CC(C4)C2)C3)C(=O)N(Cc2ccccc2)c2ccccc2C(=O)C[C@H]1C(=O)NC(C)(C)C(=O)O [Example 26, (3R,5S)-4-acetyl-3-(1-adamantyl)methyl-1-benzyl-5-(1-carboxy-1-methyl)ethylaminocarbonyl-2,7-dioxo-2,3,4,5,6,7-hexahydro-1H-1,4-benzodiazonine]
		5.4	4.7	CC(=O)N1[C@H](CC2CCCCC2)C(=O)N(Cc2ccccc2)c2ccccc2C(=O)C[C@H]1C(=O)NCC(=O)O [Example 40, (3R,5S)-4-acetyl-1-benzyl-5-carboxymethylaminocarbonyl-3-cyclohexylmethyl-2,7-dioxo-2,3,4,5,6,7-hexahydro-1H-1,4-benzodiazonine]
1.58 µM	6.31 µM			COC(=O)CNC(=O)[C@@H]1CC(=O)c2ccccc2N(Cc2ccccc2)C(=O)[C@@H](CC23CC4CC(CC(C4)C2)C3)N1C(C)=O [Example 37, (3R,5S)-4-acetyl-3-(1-adamantyl)methyl-1-benzyl-5-methoxycarbonylmethylaminocarbonyl-2,7-dioxo-2,3,4,5,6,7-hexahydro-1H-1,4-benzodiazonine]
		5.5	5.4	COC(=O)[C@@H]1CC(=O)c2ccccc2N(Cc2ccccc2)C(=O)[C@@H](CC23CC4CC(CC(C4)C2)C3)N1C(C)=O [Example 18, (3R,5S)-methyl 4-acetyl-3-[(1-adamantyl)methyl]-1-benzyl-2,7-dioxo-2,3,4,5,6,7-hexahydro-1H-1,4-benzodiazonine-5-carboxylate]
2.51 µM	3.16 µM			COc1cccc(CN2C(=O)[C@@H](CC34CC5CC(CC(C5)C3)C4)N(C(C)=O)[C@H](C(=O)O)CC(=O)c3ccccc32)c1 [Example 13, (3R,5S)-4-acetyl-3-[(1-adamantyl)methyl]-1-(3-methoxy)benzyl-2,7-dioxo-2,3,4,5,6,7-hexahydro-1H-1,4-benzodiazonine-5-carboxylate]
15.8 µM	10 µM			CC(C)(C)OC(=O)CN1C(=O)CN(C(=O)Oc2ccccc2)CCC(=O)c2ccccc21 [Example 43]
1.58 µM	2 µM			CC(=O)N1[C@H](CC23CC4CC(CC(C4)C2)C3)C(=O)N(Cc2ccc(Cl)cc2)c2ccccc2C(=O)C[C@H]1C(=O)O [Example 16, (3R,5S)-4-acetyl-3-[(1-adamantyl)methyl]-1-(4-chloro)benzyl-2,7-dioxo-2,3,4,5,6,7-hexahydro-1H-1,4-benzodiazonine-5-carboxylate]

Continued, molecule first:

SMILES	Ki (CCKB receptor)	Ki (CCKA)	pKi (Mouse cortex) (CCKB receptor)	pKi (Guinea pig pancreas) (CCKA)
COc1cccc(NC(=O)N2CCCc3ccccc3N(CC(=O)OC(C)(C)C)C(=O)C2)c1 [Example 55, 1-tert-butyloxycarbonylmethyl-4-(3-methoxyphenyl)carbamyl-2-oxo-2,3,4,5,6,7-hexahydro-1H-1,4-benzodiazonine]	10 µM	1 µM		
CC(=O)N1[C@H](CC23CC4CC(CC(C4)C2)C3)C(=O)N(Cc2ccccc2)c2ccccc2C(=O)C[C@H]1C(=O)NCC(=O)O [Example 22, (3R,5S)-4-acetyl-3-(1-adamantyl)methyl-1-benzyl-5-carboxymethylaminocarbonyl-2,7-dioxo-2,3,4,5,6,7-hexahydro-1H-1,4-benzodiazonine]	0.2 µM	10 µM		
CCOC(=O)CN1C(=O)CN(C(=O)Nc2cccc(C)c2)CCC(=O)c2ccccc21 [Example 4, 1-ethoxycarbonylmethyl-4-(3-methylphenyl)carbamyl-2,7-dioxo-2,3,4,5,6,7-hexahydro-1H-1,4-benzodiazonine]	10 µM	3.16 µM		
COc1ccc(CN2C(=O)[C@@H](CC34CC5CC(CC(C5)C3)C4)N(C(C)=O)[C@H](C(=O)Nc3cc(C(=O)O)cc(C(=O)O)c3)CC(=O)c3ccccc32)cc1 [Example 31]	1.58 µM	6.31 µM		
CC(=O)N1[C@H](CC23CC4CC(CC(C4)C2)C3)C(=O)N(Cc2ccccc2)c2ccccc2C(=O)C[C@H]1C(=O)N[C@H](C)C(=O)O [Example 25, (3R,5S)-4-acetyl-3-(1-adamantyl)methyl-1-benzyl-5-[(1R)-carboxy]ethylaminocarbonyl-2,7-dioxo-2,3,4,5,6,7-hexahydro-1H-1,4-benzodiazonine]	0.398 µM	6.31 µM		
CCC1CCN(C(=O)Nc2ccc(Cl)c(Cl)c2)CC(=O)N(Cc2ccccc2)c2ccccc21 (stereo not drawn) [Example 52, 1-benzyl-7-ethyl-4-(3,4-dichlorophenyl)carbamyl-2-oxo-2,3,4,5,6,7-hexahydro-1H-1,4-benzodiazonine]	10 µM	0.2 µM		
CC(C)(C)OC(=O)CN1C(=O)CN(C(=O)Nc2ccc(Cl)c(Cl)c2)CCC(=O)c2ccccc21 [Example 2, 1-tert-butyloxycarbonylmethyl-4-(3,4-dichlorophenyl)-carbamyl-2,7-dioxo-2,3,4,5,6,7-hexahydro-1H-1,4-benzodiazonine]	1.26 µM	0.0501 µM		
CC1CCN(C(=O)Nc2ccc3ccccc3c2)CC(=O)N(Cc2ccccc2)c2ccccc21 (stereo not drawn) [Example 45, 1-benzyl-7-methyl-4-(2-naphthyl)carbamyl-2-oxo-2,3,4,5,6,7-hexahydro-1H-1,4-benzodiazonine]	10 µM	0.0794 µM		
CC1CCN(C(=O)Nc2ccc(Cl)c(Cl)c2)CC(=O)N(Cc2ccccc2)c2ccccc21 (stereo not drawn) [Example 44, 1-benzyl-4-(3,4-dichlorophenyi)carbamyl-7-methyl-2-oxo-2,3,4,5,6,7-hexahydro-1H-1,4-benzodiazonine]	3.16 µM	0.158 µM		
CC(=O)N1[C@H](C(=O)O)CC(=O)c2ccccc2N(Cc2ccccc2)C(=O)[C@@H]1CC12CC3CC(CC(C3)C1)C2 [Example 12, (3S,5S)-4-acetyl-3-(1-adamantyl)methyl-1-benzyl-2,7-dioxo-2,3,4,5,6,7-hexahydro-1H-1,4-benzodiazonine-5-carboxylate]	10 µM	10 µM		
CC(=O)N1[C@H](CC23CC4CC(CC(C4)C2)C3)C(=O)N(C)c2ccccc2C(=O)C[C@H]1C(=O)O [Example 21, (3R,5S)-4-acetyl-3-(1-adamantyl)methyl-1-methyl-2,7-dioxo-2;3,4,5,6,7-hexahydro-1H-1,4-benzodiazonine-5-carboxylate]	7.94 µM	6.31 µM		
